Experimental data as given in US20200179369A1, “TREATMENT OF DIABETIC NEPHROPATHY” (TAKEDA GMBH, priority 2015, published 2020).

What was measured:
[1] = test system: uninephrectomized db/db mice; experiment: Diabetic nephropathy in uninephrectomized db/db mice, 8 week treatment starting 4 weeks after the uninephrectomy; format: in vivo; settings: 8 weeks starting 4 weeks after uninephrectomy
Method: Male 5-week-old BKS.Cg-+Lepr^db/+Lepr^db (db/db) mice were purchased from CLEA Japan, Inc. All mice were fed with a standard diet (CE-2, CLEA Japan, Inc.) and tap water ad libitum.
Compound A was obtained from Takeda GmbH, Konstanz, Germany. Irbesartan was purchased from LKT Laboratories, Inc (USA).
In 6 week old male db/db mice an unilateral nephrectomy was performed. Under the anesthesia with isoflurane inhalation, the right kidney was removed from the mice. After 4-week recovery period, blood samples were obtained by the puncture of facial vein and blood level of glycosylated hemoglobin (GHb) was measured by automated HPLC-based GHb analyzer (HLC-723 G8, TOSOH, Japan). After the separation of plasma samples by centrifugation, also plasma levels of glucose (PG) were measured by Autoanalyzer 7180 (Hitachi, Japan). Urine samples were collected for a 8 h time-period using metabolic cages and urine creatinine level was measured by Autoanalyzer 7180. After desaltation of urine samples with PD MiniTrap G-25 column (GE healthcare, UK), urinary levels of albumin were measured by ELISA, and urinary albumin/creatinine ratio (UACR) was calculated.
Compound A (1, 3 and 10 mg/kg, QD), roflumilast (3 mg/kg, QD) and irbesartan (50 mg/kg, QD) were suspended in 0.5% methyl cellulose solution and orally administered to mice for 8 weeks starting 4 weeks after the uninephrectomy.
At the end of the 8 weeks once daily administration blood, plasma and urine samples were obtained according to the same methods as described above. GHb, PG, urinary creatinine and albumin were measured and UACR was calculated. Body weight (BW) was measured every week during the treatment.
For evaluation of the effects of Compound A, statistical differences between vehicle- and Compound A treated groups were analyzed with two-tailed Williams' test for PG and BW and two-tailed Shirley-Williams' test for UACR and GHb. The P-values less than 0.05 were considered statistically significant in two-tailed Williams' test or Shirley-Williams' test.
For roflumilast and irbesartan, statistical differences between vehicle- and compounds-treated groups were analyzed with Student's t-test for GHb, PG and BW and Welch test for UACR. The P-values less than 0.05 were considered statistically significant in Student's t-test and Welch test.

[2] = test system: uninephrectomized db/db mice; experiment: Diabetic nephropathy in uninephrectomized db/db mice, 8 week treatment starting 12 weeks after the uninephrectomy; format: in vivo; settings: 8 weeks starting 12 weeks after uninephrectomy
Method: The experimental protocol is similar to the experimental protocol described above with the exception that the 8 week treatment with Compound A or irbesartan was started not already at 4 weeks after the uninephrectomy, but only 12 weeks after the uninephrectomy (i.e. when the increase of urinary albumin/creatinine ratio (UACR) is already in a much more advanced stage). Roflumilast was not used as a comparator in this experiment.
Compound A (1, 3 and 10 mg/kg, QD) and irbesartan (50 and 100 mg/kg, QD) were suspended in 0.5% methyl cellulose solution and orally administered to mice for 8 weeks starting 12 weeks after the uninephrectomy.
For evaluation of the effects of Compound A, statistical differences between vehicle- and Compound A treated groups were analyzed with one-tailed Williams' test for GHB, PG and BW and one-tailed Shirley-Williams' test for UACR. For irbesartan, statistical differences between vehicle- and irbesartan treated groups were analyzed with one-tailed Williams' test for UACR, GHb, PG and BW. The P-values less than 0.025 were considered statistically significant in one-tailed Williams' test or one-tailed Shirley-Williams' test.

SMILES	effect on blood level of glycosylated hemoglobin (GHb) ([1]; 50 mg/kg QD oral)	effect on increase of urinary albumin/creatinine ratio (UACR) ([1]; 50 mg/kg QD oral)	effect on plasma levels of glucose (PG) ([1]; 50 mg/kg QD oral)	effect on urinary albumin/creatinine ratio (UACR) ([2]; 50 mg/kg QD oral)	effect on urinary albumin/creatinine ratio (UACR) ([2]; 100 mg/kg QD oral)	effect on body weight (BW) ([2]; 50 and 100 mg/kg QD oral)	effect on glucose plasma levels (PG) ([2]; 50 and 100 mg/kg QD oral)	effect on glycosylated hemoglobin (GHb) ([2]; 50 and 100 mg/kg QD oral)	effect on blood level of glycosylated hemoglobin (GHb) ([1]; 3 mg/kg QD oral)	effect on increase of urinary albumin/creatinine ratio (UACR) ([1]; 3 mg/kg QD oral)	effect on plasma levels of glucose (PG) ([1]; 3 mg/kg QD oral)
CCCCC1=NC2(CCCC2)C(=O)N1Cc1ccc(-c2ccccc2-c2nnn[nH]2)cc1 [irbesartan, 2-butyl-3-[p-(o-1H-tetrazol-5-ylphenyl)benzyl]-1,3-diazaspiro[4.4]non-1-en-4-one, reference compound]	Almost no effect compared to the vehicle group	tended to suppress the increase of UACR, but its effect was not statistically significant	Almost no effect compared to the vehicle group	significant suppression on increase in UACR	significant suppression on increase in UACR	Neither Compound A nor Irbesartan affected the body weight	did not show inhibitory effects	did not show inhibitory effects			
O=C(Nc1c(Cl)cncc1Cl)c1ccc(OC(F)F)c(OCC2CC2)c1 [roflumilast, reference compound]									Almost no effect compared to the vehicle group	mild and was not statistically significant	Almost no effect compared to the vehicle group
